# According to patent US20230139445A1, “BACTERIAL CELLS WITH IMPROVED TOLERANCE TO DIACIDS” (priority 2016, published 2023):
# Read-outs that look alike come from different tables or passages of the source.
# Key:
# [1] = tested on: Escherichia coli K-12 MG1655; test: Growth of K-12 MG1655 in varying concentrations of fumaric, itaconic, malic and succinic acid, Growth Profiler; type: cell-based
# Description: (§1) Five colonies from wild-type K-12 MG1655 and 10 individual colonies deriving from each population were inoculated into 300 μL M9+1% glucose in 96 well deepwell plates and incubated in a 300 rpm plate shaker at 37° C. The next day, cells were diluted 10× in M9+1% glucose and 30 μL was transferred into clear-bottomed 96 well half-deepwell plates (with rectangular wells) containing M9+1% glucose and M9+1% glucose+52.78 g/L glutaric acid or 55.56 g/L adipic acid, such that the final concentration of glutaric acid or adipic acid was 47.5 g/L or 50 g/L, respectively. In addition, cryogenic glycerol stocks of the overnight culture were saved in a 96 well plate format. Half deepwell plates were incubated at 37° C. with 225 rpm shaking in a Growth Profiler (Enzyscreen), with optical scans of the plates taken at 15 minute intervals. Green pixel values integrated over a 1 mm diameter circular area in each well were converted to OD600 values using a previously determined calibration between OD600 and green pixel values.
# (§2) Additionally, each evolved isolate was tested for cross-tolerance toward other dicarboxylic acids of interest. […] All diacids tested were either the neutral sodium salts, or the free diacid was neutralized with sodium hydroxide to pH 7.0 for testing.
# [2] = tested on: Escherichia coli K-12 MG1655 and evolved isolates; type: cell-based; settings: 45 g/L fumaric acid
# Description: as §1, §2
structure (smiles),measurement,setting,value
O=C(O)/C=C/C(=O)O [fumaric acid],μ (mean),"[1]; growth rate of K-12 MG1655, 10 g/L diacid (sodium salt)",0.662 h^1
same,μ (mean),"[1]; growth rate of K-12 MG1655, 20 g/L diacid (sodium salt)",0.615 h^1
same,μ (mean),"[1]; growth rate of K-12 MG1655, 30 g/L diacid (sodium salt)",0.482 h^1
same,μ (mean),"[1]; growth rate of K-12 MG1655, 40 g/L diacid (sodium salt)",0.285 h^1
same,μ (mean),"[1]; growth rate of K-12 MG1655, 50 g/L diacid (sodium salt)",0.116 h^1
same,tlag (mean),"[1]; lag time of K-12 MG1655, 10 g/L diacid (sodium salt)",5.8 h
same,tlag (mean),"[1]; lag time of K-12 MG1655, 20 g/L diacid (sodium salt)",6.9 h
same,tlag (mean),"[1]; lag time of K-12 MG1655, 30 g/L diacid (sodium salt)",9.5 h
same,tlag (mean),"[1]; lag time of K-12 MG1655, 40 g/L diacid (sodium salt)",15.4 h
same,tlag (mean),"[1]; lag time of K-12 MG1655, 50 g/L diacid (sodium salt)",30.2 h
same,growth rate μ (mean),[2]; strain ADIP1-1,0.347 h⁻¹
same,lag time tlag (mean),[2]; strain ADIP1-1,10.2 h
same,growth rate μ (mean),[2]; strain ADIP1-9,0.328 h⁻¹
same,lag time tlag (mean),[2]; strain ADIP1-9,9.8 h
same,growth rate μ (mean),[2]; strain ADIP2-5,0.358 h⁻¹
same,lag time tlag (mean),[2]; strain ADIP2-5,11.4 h
same,growth rate μ (mean),[2]; strain ADIP2-6,0.380 h⁻¹
same,lag time tlag (mean),[2]; strain ADIP2-6,11.0 h
same,growth rate μ (mean),[2]; strain ADIP2-10,0.353 h⁻¹
same,lag time tlag (mean),[2]; strain ADIP2-10,11.0 h
same,growth rate μ (mean),[2]; strain ADIP3-2,0.327 h⁻¹
same,lag time tlag (mean),[2]; strain ADIP3-2,9.4 h
same,growth rate μ (mean),[2]; strain ADIP3-4,0.324 h⁻¹
same,lag time tlag (mean),[2]; strain ADIP3-4,9.7 h
same,growth rate μ (mean),[2]; strain ADIP3-8,0.343 h⁻¹
same,lag time tlag (mean),[2]; strain ADIP3-8,10.1 h
same,growth rate μ (mean),[2]; strain ADIP4-1,0.264 h⁻¹
same,lag time tlag (mean),[2]; strain ADIP4-1,11.9 h
same,growth rate μ (mean),[2]; strain ADIP4-8,0.254 h⁻¹
same,lag time tlag (mean),[2]; strain ADIP4-8,12.4 h
same,growth rate μ (mean),[2]; strain ADIP5-2,0.280 h⁻¹
same,lag time tlag (mean),[2]; strain ADIP5-2,10.6 h
same,growth rate μ (mean),[2]; strain ADIP5-6,0.444 h⁻¹
same,lag time tlag (mean),[2]; strain ADIP5-6,9.0 h
same,growth rate μ (mean),[2]; strain ADIP6-3,0.275 h⁻¹
same,lag time tlag (mean),[2]; strain ADIP6-3,11.3 h
same,growth rate μ (mean),[2]; strain ADIP6-9,0.250 h⁻¹
same,lag time tlag (mean),[2]; strain ADIP6-9,12.3 h
same,growth rate μ (mean),[2]; strain ADIP6-10,0.308 h⁻¹
same,lag time tlag (mean),[2]; strain ADIP6-10,10.0 h
same,growth rate μ (mean),[2]; strain ADIP7-2,0.312 h⁻¹
same,lag time tlag (mean),[2]; strain ADIP7-2,10.1 h
same,growth rate μ (mean),[2]; strain ADIP7-5,0.326 h⁻¹
same,lag time tlag (mean),[2]; strain ADIP7-5,10.0 h
same,growth rate μ (mean),[2]; strain ADIP8-3,0.202 h⁻¹
same,lag time tlag (mean),[2]; strain ADIP8-3,14.4 h
same,growth rate μ (mean),[2]; strain ADIP8-7,0.188 h⁻¹
same,lag time tlag (mean),[2]; strain ADIP8-7,16.1 h
same,growth rate μ (mean),[2]; strain ADIP8-10,0.221 h⁻¹
same,lag time tlag (mean),[2]; strain ADIP8-10,14.3 h
same,growth rate μ (mean),[2]; strain GLUT1-3,0.293 h⁻¹
same,lag time tlag (mean),[2]; strain GLUT1-3,13.3 h
same,growth rate μ (mean),[2]; strain GLUT1-9,0.274 h⁻¹
same,lag time tlag (mean),[2]; strain GLUT1-9,14.9 h
same,growth rate μ (mean),[2]; strain GLUT1-10,0.289 h⁻¹
same,lag time tlag (mean),[2]; strain GLUT1-10,18.9 h
same,growth rate μ (mean),[2]; strain GLUT2-1,0.277 h⁻¹
same,lag time tlag (mean),[2]; strain GLUT2-1,13.5 h
same,growth rate μ (mean),[2]; strain GLUT2-9,0.267 h⁻¹
same,lag time tlag (mean),[2]; strain GLUT2-9,12.2 h
same,growth rate μ (mean),[2]; strain GLUT2-10,0.312 h⁻¹
same,lag time tlag (mean),[2]; strain GLUT2-10,12.3 h
same,growth rate μ (mean),[2]; strain GLUT3-5,0.263 h⁻¹
same,lag time tlag (mean),[2]; strain GLUT3-5,16.6 h
same,growth rate μ (mean),[2]; strain GLUT3-7,0.264 h⁻¹
same,lag time tlag (mean),[2]; strain GLUT3-7,16.2 h
same,growth rate μ (mean),[2]; strain GLUT3-9,0.305 h⁻¹
same,lag time tlag (mean),[2]; strain GLUT3-9,24.3 h
same,growth rate μ (mean),[2]; strain GLUT4-1,0.295 h⁻¹
same,lag time tlag (mean),[2]; strain GLUT4-1,14.6 h
same,growth rate μ (mean),[2]; strain GLUT4-4,0.287 h⁻¹
same,lag time tlag (mean),[2]; strain GLUT4-4,15.3 h
same,growth rate μ (mean),[2]; strain GLUT4-10,0.274 h⁻¹
same,lag time tlag (mean),[2]; strain GLUT4-10,16.3 h
same,growth rate μ (mean),[2]; strain GLUT5-4,0.386 h⁻¹
same,lag time tlag (mean),[2]; strain GLUT5-4,14.1 h
same,growth rate μ (mean),[2]; strain GLUT5-5,0.375 h⁻¹
same,lag time tlag (mean),[2]; strain GLUT5-5,15.1 h
same,growth rate μ (mean),[2]; strain GLUT5-9,0.370 h⁻¹
same,lag time tlag (mean),[2]; strain GLUT5-9,14.9 h
same,growth rate μ (mean),[2]; strain GLUT6-4,0.281 h⁻¹
same,lag time tlag (mean),[2]; strain GLUT6-4,13.8 h
same,growth rate μ (mean),[2]; strain GLUT6-5,0.279 h⁻¹
same,lag time tlag (mean),[2]; strain GLUT6-5,13.2 h
same,growth rate μ (mean),[2]; strain GLUT6-10,0.277 h⁻¹
same,lag time tlag (mean),[2]; strain GLUT6-10,14.2 h
same,growth rate μ (mean),[2]; strain GLUT7-2,0.304 h⁻¹
same,lag time tlag (mean),[2]; strain GLUT7-2,14.6 h
same,growth rate μ (mean),[2]; strain GLUT7-6,0.261 h⁻¹
same,lag time tlag (mean),[2]; strain GLUT7-6,19.5 h
same,growth rate μ (mean),[2]; strain GLUT7-7,0.193 h⁻¹
same,lag time tlag (mean),[2]; strain GLUT7-7,22.0 h
same,growth rate μ (mean),[2]; strain GLUT8-5,0.247 h⁻¹
same,lag time tlag (mean),[2]; strain GLUT8-5,14.4 h
same,growth rate μ (mean),[2]; strain GLUT8-6,0.272 h⁻¹
same,lag time tlag (mean),[2]; strain GLUT8-6,43.5 h
same,growth rate μ (mean),[2]; strain GLUT8-9,0.196 h⁻¹
same,lag time tlag (mean),[2]; strain GLUT8-9,54.3 h
same,growth rate μ (mean),[2]; strain MG1655 (Table 26),0.216 h⁻¹
same,lag time tlag (mean),[2]; strain MG1655 (Table 26),16.6 h
same,growth rate μ (mean),[2]; strain MG1655 (Table 27),0.212 h⁻¹
same,lag time tlag (mean),[2]; strain MG1655 (Table 27),15.5 h
